# In the supplement of paper PMC11061612:
# Tests used:
# Test in all cases: Bliss excess, mean over the matrix (fraction); higher = more synergy
# [1] = test system: NCI-H847 (Small Cell Lung Carcinoma)
# Procedure, shortened: (§1)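 Cell lines in DMEM/F12 or RPMI with 10% FBS were plated in 1536-well plates, held 24 hours at 37°C, 5% CO2, then given two-drug dose matrices for 72 hours (DMSO typically 0.2%). Viability was read by CellTiter-Glo 2.0 luminescence and scaled as inhibition from 0 (vehicle wells) to 1 (blank wells). Combination Emax is the second-highest inhibition in the matrix; Bliss excess is observed combination effect minus expected EA + EB − EA·EB, EA and EB being single-agent effects.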
# [2] = test system: U251 (Low Grade Glioma)
# Procedure, shortened: as §1
# [3] = test system: NCI-H1792 (Lung Adenocarcinoma)
# Procedure, shortened: as §1
# [4] = test system: SU-DHL-8 (B-Cell Non-Hodgkin's Lymphoma)
# Procedure, shortened: as §1
# [5] = test system: MKN28 (Gastric Carcinoma)
# Procedure, shortened: as §1
# [6] = test system: MS751 (Cervical Carcinoma)
# Procedure, shortened: as §1
# [7] = test system: CAMA-1 (Breast Carcinoma)
# Procedure, shortened: as §1
# [8] = test system: ES8 (Ewing's Sarcoma)
# Procedure, shortened: as §1
# [9] = test system: BL-41 (Burkitt's Lymphoma)
# Procedure, shortened: as §1
# [10] = test system: MEL-JUSO (Melanoma)
# Procedure, shortened: as §1
# [11] = test system: EVSA-T (Breast Carcinoma)
# Procedure, shortened: as §1
# [12] = test system: TC-71 (Ewing's Sarcoma)
# Procedure, shortened: as §1
# [13] = test system: KYSE-180 (Esophageal Squamous Cell Carcinoma)
# Procedure, shortened: as §1
# [14] = test system: MFM-223 (Breast Carcinoma)
# Procedure, shortened: as §1
# [15] = test system: DiFi (Colorectal Carcinoma)
# Procedure, shortened: as §1
# [16] = test system: WIL2-NS (Non-Cancerous)
# Procedure, shortened: as §1
# [17] = test system: SW1417 (Colorectal Carcinoma)
# Procedure, shortened: as §1
# [18] = test system: TE-6 (Esophageal Squamous Cell Carcinoma)
# Procedure, shortened: as §1
# [19] = test system: HDQ-P1 (Breast Carcinoma)
# Procedure, shortened: as §1
# [20] = test system: P12-ICHIKAWA (T-Lymphoblastic Leukemia)
# Procedure, shortened: as §1
SMILES,Bliss excess [1],Bliss excess [2],Bliss excess [3],Bliss excess [4],Bliss excess [5],Bliss excess [6],Bliss excess [7],Bliss excess [8],Bliss excess [9],Bliss excess [10],Bliss excess [11],Bliss excess [12],Bliss excess [13],Bliss excess [14],Bliss excess [15],Bliss excess [16],Bliss excess [17],Bliss excess [18],Bliss excess [19],Bliss excess [20]
"CN(C)CCCOc1ccc(-c2ccc3ncc4c(c3c2)n(C2CCOCC2)c(=O)n4C)cn1 [AZD0156] + C=CCn1c(=O)c2cnc(Nc3ccc(N4CCN(C)CC4)cc3)nc2n1-c1cccc(C(C)(C)O)n1 [AZD1775] (first compound max 1 µM, partner max 1 µM)",-0.0114,0.005,-0.0041,0.0032,-0.0875,-0.0154,-0.0726,-0.0464,0.0047,0.0243,-0.0618,0.0685,-0.0451,-0.0282,-0.0013,0.0135,-0.0213,-0.045,0.0118,
"CN(C)CCCOc1ccc(-c2ccc3ncc4c(c3c2)n(C2CCOCC2)c(=O)n4C)cn1 [AZD0156] + CCN(CCO)CCCOc1ccc2c(Nc3cc(CC(=O)Nc4cccc(F)c4)[nH]n3)ncnc2c1 [AZD2811] (first compound max 1 µM, 7x7, partner max 1 µM)",-0.0122,0.0131,-0.0032,0.0377,-0.0295,-0.0235,-0.0318,-0.0153,0.0177,-0.0039,0.0104,0.0495,-0.0153,0.0113,-0.0363,-0.003,-0.0418,0.0127,-0.0634,
"CN(C)CCCOc1ccc(-c2ccc3ncc4c(c3c2)n(C2CCOCC2)c(=O)n4C)cn1 [AZD0156] + C[C@@H]1COCCN1C2=NC(=NC(=C2)C3(CC3)[S@](=N)(=O)C)C4=C5C=CNC5=NC=C4 [AZD6738] (first compound max 1 µM, 7x7, partner max 10 µM)",-0.0116,-0.0087,0.0254,0.0169,-0.0092,-0.0221,-0.0444,0.0169,0.0704,0.0108,0.0081,0.069,0.0762,0.0432,0.0174,0.0131,-0.0019,0.0225,0.0214,
"COc1cc2ncnc(Nc3ccc(F)c(Cl)c3)c2cc1OCCCN1CCOCC1 [Gefitinib] + CC(C)n1c(=O)n(C)c2cnc3cc(F)c(-c4ccc(OCCCN5CCCCC5)nc4)cc3c21 [AZD1390] (first compound max 10 µM, 7x7, partner max 0.3 µM)",,-0.0624,-0.0422,-0.0157,-0.0498,-0.0614,-0.0434,-0.0364,0.003,-0.0857,-0.0306,-0.0927,-0.0621,-0.0681,-0.0882,-0.0241,-0.0456,-0.117,-0.114,-0.0152
"CS(=O)(=O)CCNCc1ccc(-c2ccc3ncnc(Nc4ccc(OCc5cccc(F)c5)c(Cl)c4)c3c2)o1 [Lapatinib] + C[C@@H](Oc1cc(-c2cnn(C3CCNCC3)c2)cnc1N)c1c(Cl)ccc(F)c1Cl [Crizotinib] (first compound max 10 µM, 7x7, partner max 10 µM)",,-0.0586,-0.0342,0.0546,-0.0477,0.0207,-0.0178,-0.0424,-0.0236,-0.034,-0.0359,-0.0079,0.0476,0.0148,0.0187,-0.0273,-0.0165,-0.0111,-0.0144,-0.0077
"CC(=O)c1c(C)c2cnc(Nc3ccc(N4CCNCC4)cn3)nc2n(C2CCCC2)c1=O [Palbociclib] + CC1(C)CCC(CN2CCN(c3ccc(C(=O)NS(=O)(=O)c4ccc(NCC5CCOCC5)c([N+](=O)[O-])c4)c(Oc4cnc5[nH]ccc5c4)c3)CC2)=C(c2ccc(Cl)cc2)C1 [Venetoclax] (first compound max 10 µM, 7x7, partner max 1 µM)",,-0.0348,-0.0103,-0.0096,-0.0461,-0.0251,-0.0381,0.0365,-0.0842,-0.0309,0.0048,-0.0129,-0.012,0.0031,0.0239,0.0278,-0.0267,-0.0255,-0.0555,-0.0157
"CC(=O)c1c(C)c2cnc(Nc3ccc(N4CCNCC4)cn3)nc2n(C2CCCC2)c1=O [Palbociclib] + Cc1c2c(nn1C)CSCc1cc(n(C)n1)CSc1cc(c3ccccc3c1)OCCCc1c(C(=O)O)n(C)c3c-2c(Cl)ccc13 [AZD5991] (first compound max 10 µM, 7x7, partner max 1 µM)",,-0.0479,-0.0186,-0.22,-0.0385,-0.0294,-0.0525,0.0838,-0.0691,-0.103,-0.117,-0.0182,-0.0602,-0.0784,-0.0139,-0.0608,-0.0089,-0.0272,-0.0396,-0.0467
"CC(=O)c1c(C)c2cnc(Nc3ccc(N4CCNCC4)cn3)nc2n(C2CCCC2)c1=O [Palbociclib] + Cn1cnc2c(F)c(Nc3ccc(Br)cc3Cl)c(C(=O)NOCCO)cc21 [Selumetinib] (first compound max 10 µM, 7x7, partner max 10 µM)",,-0.0013,0.119,0.0147,0.0275,-0.0445,-0.027,0.041,-0.0131,0.0028,-0.0035,-0.012,-0.0135,0.0341,0.0274,-0.0133,-0.0094,0.0172,-0.0555,0.138
"CCc1c2c(nc3ccc(O)cc13)-c1cc3c(c(=O)n1C2)COC(=O)[C@]3(O)CC [SN-38] + O=C(c1cc(Cc2n[nH]c(=O)c3ccccc23)ccc1F)N1CCN(C(=O)C2CC2)CC1 [Olaparib] (first compound max 0.3 µM, 7x7, partner max 10 µM)",0.0304,,0.0361,,0.0385,0.053,0.0287,0.0636,0.0462,,0.0738,,0.0458,0.0054,0.0423,0.0736,0.0174,,0.025,
"C[C@@H](c1ccc2nccn2c1)n1nnc2ncc(-c3cnn(C)c3)nc21 [Savolitinib] + CC1(C)CCC(CN2CCN(c3ccc(C(=O)NS(=O)(=O)c4ccc(NCC5CCOCC5)c([N+](=O)[O-])c4)c(Oc4cnc5[nH]ccc5c4)c3)CC2)=C(c2ccc(Cl)cc2)C1 [Venetoclax] (first compound max 1 µM, 7x7, partner max 1 µM)",,-0.0938,-0.0597,-0.0419,-0.0464,-0.028,-0.0211,0.0191,-0.0365,-0.0919,-0.0269,-0.0517,-0.0326,-0.0414,-0.0468,-0.0285,-0.0509,-0.0559,-0.085,-0.0414
"C[C@@H](c1ccc2nccn2c1)n1nnc2ncc(-c3cnn(C)c3)nc21 [Savolitinib] + Cc1c2c(nn1C)CSCc1cc(n(C)n1)CSc1cc(c3ccccc3c1)OCCCc1c(C(=O)O)n(C)c3c-2c(Cl)ccc13 [AZD5991] (first compound max 1 µM, 7x7, partner max 1 µM)",,-0.0691,-0.0279,-0.0425,-0.045,-0.0701,-0.0136,0.0495,-0.0318,-0.0269,-0.0233,-0.021,-0.0117,-0.0228,-0.0321,-0.0262,-0.0228,-0.0541,-0.0456,0.02
"Cn1cnc2c(F)c(Nc3ccc(Br)cc3Cl)c(C(=O)NOCCO)cc21 [Selumetinib] + C=CCn1c(=O)c2cnc(Nc3ccc(N4CCN(C)CC4)cc3)nc2n1-c1cccc(C(C)(C)O)n1 [AZD1775] (first compound max 10 µM, partner max 1 µM)",,-0.0365,-0.0647,-0.0846,-0.0192,0.0171,-0.0309,-0.185,-0.0162,-0.0388,-0.015,-0.039,-0.122,-0.0831,0.0233,0.0363,0.0387,0.0165,-0.0453,0.0595
"Cn1cnc2c(F)c(Nc3ccc(Br)cc3Cl)c(C(=O)NOCCO)cc21 [Selumetinib] + CC(C)n1c(=O)n(C)c2cnc3cc(F)c(-c4ccc(OCCCN5CCCCC5)nc4)cc3c21 [AZD1390] (first compound max 10 µM, 7x7, partner max 0.3 µM)",,-0.0361,-0.0075,-0.0201,-0.0463,-0.0171,-0.0429,-0.0529,0.0029,-0.0291,-0.0185,-0.0211,-0.042,-0.033,0.0004,-0.0251,-0.0094,-0.0528,-0.0456,0.0544
"Cn1cnc2c(F)c(Nc3ccc(Br)cc3Cl)c(C(=O)NOCCO)cc21 [Selumetinib] + CCN(CCO)CCCOc1ccc2c(Nc3cc(CC(=O)Nc4cccc(F)c4)[nH]n3)ncnc2c1 [AZD2811] (first compound max 10 µM, 7x7, partner max 1 µM)",,-0.034,0.0143,-0.0216,-0.0317,0.055,-0.0227,-0.0089,0.0338,-0.0206,0.0097,0.0298,-0.0408,-0.0363,0.0371,0.0264,0.058,-0.0282,-0.0538,0.0216
"Cn1cnc2c(F)c(Nc3ccc(Br)cc3Cl)c(C(=O)NOCCO)cc21 [Selumetinib] + C[C@@H]1COCCN1C2=NC(=NC(=C2)C3(CC3)[S@](=N)(=O)C)C4=C5C=CNC5=NC=C4 [AZD6738] (first compound max 10 µM, 7x7, partner max 10 µM)",,-0.0149,-0.0049,-0.0454,-0.0316,0.0516,-0.0506,-0.069,-0.0299,0.0935,-0.0377,-0.022,-0.0249,-0.0412,0.0092,-0.033,0.0363,0.0221,0.0228,0.0286
